Assay results as given in PMC5362899, “Structural insights into the nucleotide base specificity of P2X receptors” (Scientific Reports, 2017).

Target: T1, zfP2X4 (ΔP2X4-C) WT (Danio rerio, UniProt F8W463, N187R/N78K)
T1 construct: EGFP (N); octa-histidine tag (N); made in house; host or cells: Sf9 insect cells
T1 sequence (F8W463 28-365 N78K/N187R limits assumed): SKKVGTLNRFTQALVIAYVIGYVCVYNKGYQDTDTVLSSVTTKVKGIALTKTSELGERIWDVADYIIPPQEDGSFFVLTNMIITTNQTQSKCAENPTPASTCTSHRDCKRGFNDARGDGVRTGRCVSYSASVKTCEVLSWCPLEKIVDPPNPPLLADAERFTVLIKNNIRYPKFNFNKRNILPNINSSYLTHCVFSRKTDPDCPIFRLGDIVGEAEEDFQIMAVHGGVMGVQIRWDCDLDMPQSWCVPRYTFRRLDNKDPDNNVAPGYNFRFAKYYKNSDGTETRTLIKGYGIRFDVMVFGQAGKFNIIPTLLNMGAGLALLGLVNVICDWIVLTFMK
Assay: ATR-FTIR difference spectroscopy, residual nucleotide after washing, zfP2X4 WT
Assay type: binding, zebrafish
Conditions: 10 μM nucleotide, after 15–30 min washing, P-O stretching bands 1250–800 cm−1
Excerpt: To further investigate the nucleotide binding specificity of zfP2X4, we applied ligand-binding induced difference Attenuated total reflectance (ATR)-Fourier-transform infrared (FTIR) spectroscopy on the WT and conserved threonine mutants (T189S and T189V) of zfP2X4.
Figure 5 ATR-FTIR spectroscopic analysis of zfP2X4 for the ATP and CTP bindings. (A) The reduction of the ligand binding induced difference spectra in the ΔP2X4-C ^zfWT, ^zfT189S and ^zfT189V mutants around the P-O stretching region (1250–800 cm^−1) after washing treatment for 15–30 min. (B) The residual nucleotides after the washing treatment estimated from the ATR-FTIR analysis in (A).
The nucleotide binding affinity of zfP2X4 was analyzed by reduction of the band intensity after washing treatment (Fig. 5). The reduction of the P-O stretching bands between 1250–800 cm^−1 was monitored for ATP (Fig. 5A). […]
The perfusion-induced difference FTIR spectroscopy was performed as similarly to the previous studies. […] ATR-FTIR spectra of the samples were recorded at 25 °C and 2 cm^−1 resolution using a VERTEX 70 spectrometer (Bruker Optics) equipped with a liquid-nitrogen-cooled MCT detector. […] The obtained difference spectra were normalized based on the absolute absorbance of the amide I band at 1653 cm^−1, which well correlates with the quantities of the proteins on the ATR crystals. […]

SMILES | residual nucleotide binding after washing
Nc1ncnc2c1ncn2[C@@H]1O[C@H](COP(=O)(O)OP(=O)(O)OP(=O)(O)O)[C@@H](O)[C@H]1O [ATP, Adenosine 5-triphosphate] | ~ 80%
Nc1ccn([C@@H]2O[C@H](COP(=O)(O)OP(=O)(O)OP(=O)(O)O)[C@@H](O)[C@H]2O)c(=O)n1 [CTP] | ~ 50%
